Data from article PMC9501899 (Journal of the American Chemical Society, 2022).

Key:
G2019S LRRK2 = target: T1, G2019S LRRK2 (Mus musculus, UniProt Q5S006, G2019S); assay: LRRK2 degradation in G2019S LRRK2 MEFs by Western blotting; format: cell-based
T1 construct: endogenous in cells; host or cells: G2019S LRRK2 MEFs
Description: (§1) These PROTACs were then biologically evaluated in mouse embryonic fibroblasts (MEFs) by Western blotting. Briefly, MEFs were treated with compounds at 33 nM and 1 μM for 4 h (Figure 2) and 24 h (Figure S2) separately, and the intracellular level of LRRK2, phosphorylated LRRK2 at Ser935, and phosphorylated Rab10 (pRab10) at Thr73 was determined. Rab10[5],[49] is one of the bona fide substrates of LRRK2, whose phosphorylation status is directly affected by the LRRK2 kinase activity and protein level. Phosphorylation of LRRK2 at Ser935 is a well-studied biomarker site used to assess the efficacy of type 1 LRRK2 inhibitors.[30]
(§2) Primary MEFs were generated as described in a previous study.[80] Briefly, the uterine horn was collected from adult female mice at day E12.5 and transferred to a 10 cm tissue culture dish containing cold PBS. Two forceps were used to tear the yolk sacs to isolate each embryo. Forceps were cleaned thoroughly with 70% ethanol between each embryo isolation. The embryos were culled, and a tissue piece was collected in a polymerase chain reaction (PCR) tube for genotyping. The red tissue of the embryo was removed, and the remainder was minced with a scalpel blade and incubated with a 7.5 mL trypsin–ethylenediaminetetraacetic acid (EDTA) solution for 10 min in a 37 °C, 5% CO2 tissue culture incubator. The dish was removed from the incubator and checked under a light microscope for single cells. Complete media (7.5 mL) was added to the trypsinized cells, and the cell suspension was transferred to a 15 mL Falcon tube and centrifuged at 1200 rpm for 5 min at room temperature. The trypsin was aspirated, the cell pellet was resuspended in a 5 mL fresh complete media, and the cell suspension was plated in a 60 mm tissue culture dish and incubated in a 37 °C, 5% CO2 tissue culture incubator. The MEFs at this stage were considered as passage 0 and were passaged and expanded for experimental use once the genotype was confirmed by allelic sequencing and immunoblotting. MEFs were cultured in Dulbecco’s modified Eagle’s medium (DMEM) containing 10% (v/v) fetal bovine serum (FBS), 2 mM L-glutamine, 100 U/mL penicillin, and 100 μg/mL streptomycin supplemented with 1× nonessential amino acids and 1 mM sodium pyruvate.
(§3) Culturing and passaging of adherent cell lines were carried out using an aseptic technique in CL1 or CL2 (for PBMC isolation) biological safety cabinets. All cells were incubated in a 37 °C incubator with 5% CO2. Cell lines were regularly tested for mycoplasma contamination. For Western blot assay, the cells were seeded in six-well plates. For immunoprecipitation of LRRK2, SH-SY5Y cells (cultured in DMEM-F12, supplemented with 15% (v/v) FBS, 100 U/mL penicillin and 100 μg/mL streptomycin, 1× nonessential amino acids, and 1 mM sodium pyruvate) were seeded in a 10 cm dish. All cells were treated with the indicated compounds such that the final concentration of DMSO was 0.1%. Following the treatment of cells with compounds at indicated concentrations and time periods, the media was removed and the cells were washed with PBS and lysed in a 100 μL ice-cold complete lysis buffer containing 50 mM tris–HCl pH 7.4, 1 mM EGTA, 10 mM 2-glycerophosphate, 50 mM sodium fluoride, 5 mM sodium pyrophosphate, 270 mM sucrose, supplemented with 1 μg/mL microcystin-LR, 1 mM sodium orthovanadate, complete EDTA-free protease inhibitor cocktail (Roche), and 1% (v/v) Triton X-100. The cells were immediately placed on ice and were scraped and collected into 1.5 mL Eppendorf tubes. Cell lysates were incubated on ice for 10 min prior to centrifugation at 15 000g at 4 °C for 15 min.

Rab10-pThr73 [1] = assay: Rab10 dephosphorylation in WT MEFs by Western blotting; format: cell-based, mouse; conditions: Mus musculus; 4 h, WT MEFs; read-out: EC50 WT-pRab10
Description: as §1, §2, §3

WT LRRK2 = target: T2, WT LRRK2 (Mus musculus, UniProt Q5S006); assay: LRRK2 degradation in WT MEFs by Western blotting; format: cell-based; conditions: 4 h
T2 construct: endogenous in cells; host or cells: wild-type primary MEFs
T2 sequence (Q5S006 whole entry): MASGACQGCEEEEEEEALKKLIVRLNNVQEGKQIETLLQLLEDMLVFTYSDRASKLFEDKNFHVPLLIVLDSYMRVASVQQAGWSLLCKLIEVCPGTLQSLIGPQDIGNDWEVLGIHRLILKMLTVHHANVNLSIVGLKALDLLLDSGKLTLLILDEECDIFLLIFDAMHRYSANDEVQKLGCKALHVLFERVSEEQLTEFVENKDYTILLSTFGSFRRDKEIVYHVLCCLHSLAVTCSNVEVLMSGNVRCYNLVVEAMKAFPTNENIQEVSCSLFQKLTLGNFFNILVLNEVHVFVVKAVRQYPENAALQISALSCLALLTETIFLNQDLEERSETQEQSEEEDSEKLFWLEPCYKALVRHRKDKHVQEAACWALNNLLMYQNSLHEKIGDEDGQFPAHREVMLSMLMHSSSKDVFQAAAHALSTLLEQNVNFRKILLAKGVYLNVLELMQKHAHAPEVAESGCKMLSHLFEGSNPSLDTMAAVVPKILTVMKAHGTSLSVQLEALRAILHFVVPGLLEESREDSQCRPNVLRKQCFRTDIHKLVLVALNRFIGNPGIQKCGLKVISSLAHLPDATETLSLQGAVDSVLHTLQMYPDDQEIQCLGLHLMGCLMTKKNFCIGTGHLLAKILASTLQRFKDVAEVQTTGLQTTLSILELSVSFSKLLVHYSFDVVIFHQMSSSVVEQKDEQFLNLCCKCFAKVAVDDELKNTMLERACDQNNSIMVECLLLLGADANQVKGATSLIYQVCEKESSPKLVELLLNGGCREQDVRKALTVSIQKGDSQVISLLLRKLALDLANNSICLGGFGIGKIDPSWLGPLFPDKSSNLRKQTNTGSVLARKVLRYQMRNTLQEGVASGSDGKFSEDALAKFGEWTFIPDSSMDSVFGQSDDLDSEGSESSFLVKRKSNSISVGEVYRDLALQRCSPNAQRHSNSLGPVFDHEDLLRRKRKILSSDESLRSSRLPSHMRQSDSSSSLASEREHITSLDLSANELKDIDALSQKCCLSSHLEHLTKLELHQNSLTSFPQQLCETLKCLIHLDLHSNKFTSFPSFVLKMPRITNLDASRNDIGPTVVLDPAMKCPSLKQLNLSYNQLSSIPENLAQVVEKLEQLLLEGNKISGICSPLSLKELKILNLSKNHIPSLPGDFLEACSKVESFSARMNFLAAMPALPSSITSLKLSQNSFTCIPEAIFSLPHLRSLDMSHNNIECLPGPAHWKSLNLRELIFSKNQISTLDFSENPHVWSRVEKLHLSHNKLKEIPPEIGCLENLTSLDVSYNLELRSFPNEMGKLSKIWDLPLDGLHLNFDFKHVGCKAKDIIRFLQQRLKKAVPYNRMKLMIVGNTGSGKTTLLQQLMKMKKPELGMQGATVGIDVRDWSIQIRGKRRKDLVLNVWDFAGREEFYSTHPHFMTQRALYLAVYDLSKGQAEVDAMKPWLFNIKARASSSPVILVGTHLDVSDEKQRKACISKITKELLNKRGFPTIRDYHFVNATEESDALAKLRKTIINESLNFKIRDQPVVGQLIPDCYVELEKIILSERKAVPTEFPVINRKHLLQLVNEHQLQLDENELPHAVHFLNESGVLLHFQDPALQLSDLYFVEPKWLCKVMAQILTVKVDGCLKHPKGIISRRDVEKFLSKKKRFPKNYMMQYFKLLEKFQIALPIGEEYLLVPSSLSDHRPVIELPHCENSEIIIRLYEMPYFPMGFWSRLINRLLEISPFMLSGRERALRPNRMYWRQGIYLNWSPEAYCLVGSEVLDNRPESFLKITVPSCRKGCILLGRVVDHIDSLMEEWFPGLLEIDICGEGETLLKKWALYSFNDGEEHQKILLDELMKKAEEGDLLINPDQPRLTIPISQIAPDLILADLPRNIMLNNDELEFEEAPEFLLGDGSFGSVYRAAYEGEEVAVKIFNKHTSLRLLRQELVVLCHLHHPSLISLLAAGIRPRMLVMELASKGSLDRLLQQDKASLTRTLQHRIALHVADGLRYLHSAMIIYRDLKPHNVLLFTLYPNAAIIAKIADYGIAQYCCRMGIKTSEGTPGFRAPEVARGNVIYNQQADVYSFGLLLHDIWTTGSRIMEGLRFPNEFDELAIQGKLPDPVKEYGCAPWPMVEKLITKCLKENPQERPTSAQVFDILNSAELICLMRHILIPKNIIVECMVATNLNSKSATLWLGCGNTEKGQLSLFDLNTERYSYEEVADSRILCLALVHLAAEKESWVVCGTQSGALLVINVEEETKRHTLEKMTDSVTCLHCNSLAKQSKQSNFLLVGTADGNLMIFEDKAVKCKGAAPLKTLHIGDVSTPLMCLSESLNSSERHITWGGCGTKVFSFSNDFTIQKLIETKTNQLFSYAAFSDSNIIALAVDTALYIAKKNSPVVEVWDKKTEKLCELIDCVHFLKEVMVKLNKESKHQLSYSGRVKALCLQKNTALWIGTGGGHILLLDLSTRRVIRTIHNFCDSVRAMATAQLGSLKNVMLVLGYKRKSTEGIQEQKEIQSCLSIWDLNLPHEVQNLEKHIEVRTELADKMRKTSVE
Description: as §1, §2, §3

Rab10-pThr73 [2] = assay: Rab10 dephosphorylation in G2019S LRRK2 MEFs by Western blotting; format: cell-based, mouse
Description: as §1, §2, §3

LRRK2 = assay: Western blot screening of PROTACs in WT and G2019S LRRK2 MEFs; format: cell-based, mouse
Description: as §1, §2
Culturing and passaging of adherent cell lines were carried out using an aseptic technique in CL1 or CL2 (for PBMC isolation) biological safety cabinets. All cells were incubated in a 37 °C incubator with 5% CO2. Cell lines were regularly tested for mycoplasma contamination. For Western blot assay, the cells were seeded in six-well plates.

T1 sequence (Q5S006 whole entry G2019S): as the sequence (Q5S006 whole entry) above, with G2019S counted along it

CNc1nc(Nc2ccc(C(=O)N3CCOCC3)cc2OC)ncc1Cl [HG-10-102-01, reference compound]
degradation of G2019S LRRK2 (in words) (G2019S LRRK2; 4 h): did not degrade LRRK2 | EC50 (Rab10-pThr73 [1]): 214 nM | degradation of WT LRRK2 (in words) (WT LRRK2): did not degrade LRRK2 | EC50 (Rab10-pThr73 [2]; Mus musculus, 4 h, G2019S LRRK2 MEFs, read-out: EC50 G2019S pRab10): 110 nM

CNc1nc(Nc2ccc(C(=O)N3CCN(CCCOc4cc(-c5scnc5C)ccc4CNC(=O)[C@@H]4C[C@@H](O)CN4C(=O)[C@@H](NC(=O)C4(F)CC4)C(C)(C)C)CC3)cc2OC)ncc1Cl [SD13]
G2019S LRRK2 degraded (G2019S LRRK2; 33 nM/4 h): 60% | G2019S LRRK2 degraded (G2019S LRRK2; 33 nM/24 h): 68%

CNc1nc(Nc2ccc(C(=O)N3CCN(Cc4ccc(CSC(C)(C)C(NC(=O)C5(F)CC5)C(=O)N5CC(O)CC5C(=O)NCc5ccc(-c6scnc6C)cc5)cc4)CC3)cc2OC)ncc1Cl (stereo not drawn) [SD100]
degradation of LRRK2 (LRRK2; 0.033 µM): < 40% | degradation of LRRK2 (in words) (LRRK2; 33 nM/4 h, WT and G2019S LRRK2 MEFs): little to no degradation | pRab10 dephosphorylated (Rab10-pThr73 [2]; 1 µM): 75–90%
